Test results reported in US20190022198A1, “Individualized Immunomodulation Therapy for Neurodegenerative Disorders, CNS Injury and Age-Related Dementia” (Yeda Research and Development Co. Ltd., priority 2012, published 2019).
Entries after “also recorded” stand apart in the source; their conditions may differ.

How the values were obtained:
CP epithelial cells = experiment: Primary culture of choroid plexus cells treated with cytokines, mRNA by real-time qPCR; assay type: cell-based, mouse; details: for gene expression levels of trafficking molecules (ICAM-1, VCAM-1, CCL5, CXCL9, CXCL10, MHC-II): cultured CP cells from WT mice, IL-6 10 ng/ml; for expression of trafficking-related genes, escalating dosing of the cytokines: escalating dosing (data not shown); for ccl11 mRNA levels (CCL11 expression): cultured CP epithelial cells from young (3 months) mice, 24 hours after addition
Protocol: Mice were perfused from the left ventricle of the heart with PBS, and their CPs were removed under a dissecting microscope (Stemi DV4; Zeiss) in PBS into tubes containing 0.25% trypsin, and kept on ice. The tubes were shaken for 20 minutes at 37° C. and the tissue was dissociated by pipetting. The cell suspension was washed in culture medium for epithelial cells (DMEM/HAM's F12 (Invitrogen Corp)) supplemented with 10% FCS (Sigma-Aldrich), 1 mM 1-glutamine, 1 mM sodium pyruvate, 100 U/ml penicillin, […] streptomycin, 5 μg/ml Insulin, 20 μM Ara-C, 5 ng/ml sodium selenite, 10 ng/ml EGF, and cultured (˜250,000 cells/well) at 37° C., 5% CO2 in 24-well plates (Corning Incorporated) coated with poly-L-lysine (PLL; Sigma-Aldrich). After 24 hours, the medium was changed, and the cells were either left untreated, or treated with the indicated cytokines (all purchased from PeproTech): IFN-γ, IL-4, IL-10, IL-17A, GM-CSF, IL-6, IL-1β or TNF-α or their combinations for 24 h. Cell viability was quantified by Trypan blue staining after detachment of the cells with 0.25% trypsin for 10 minutes at 37° C. Neutralizing antibodies to TNF-R1 or TNF-R2 ([…], BioLegend) were added 1 h prior to the addition of TNF-α (100 ng/ml). RNA was isolated using the ZR RNA microprep kit (Zymo Research) according to the manufacturer's protocol.
Total RNA of the hippocampus was extracted with TRI reagent (MRC, Cincinnati, Ohio) and was purified from the lysates and spinal cord using the RNeasy kit (Qiagen, Hilden, Germany). Total RNA of the choroid plexus was extracted using the RNA MicroPrep kit (Zymo Research). mRNA (1 μg) was converted to cDNA using High Capacity cDNA Reverse Transcription Kit (Applied Biosystems). The expression of specific mRNAs was assayed using fluorescence based real-time quantitative PCR (qPCR). qPCR reactions were performed using Power SYBR Green PCR Master Mix (Applied Biosystems). Quantification reactions were performed in triplicates for each sample using the standard curve method. Glyceraldehyde 3-phosphate dehydrogenase (GAPDH), Peptidylprolyl isomerase A (PPIA), and hypoxanthine guanine phosphoribosyltransferase (HPRT) were chosen as reference genes according to their stability in the target tissue. The amplification cycles were 95° C. for 5 sec, 60° C. for 20 sec, and 72° C. for 15 sec. At the end of the assay, a melting curve was constructed to evaluate the specificity of the reaction. For some genes, the cDNA was pre-amplified in 14 PCR cycles with non-random PCR primers, thus increasing the sensitivity of the subsequent real-time PCR analysis (PreAmp Master Mix Kit, Applied Biosystems). For these genes, expression was determined using TaqMan Real-Time PCR, according to manufacturer's instructions (Applied Biosystems). All quantitative real-time PCR reactions were performed and analyzed using the 7500 Real-Time PCR System (Applied Biosystems). The following TaqMan probes were used: Mm02342430_g1 (ppia), Mm00446968_m1 (hprt), Mm00445260_m1 (il-4), Mm01168134_m1 (ifn-γ), Mm00441238_m1 (ccl11), Mm00475988_m1 (arg-1). In addition, the following primers were used: […]

cultured CP cells = experiment: Immunocytochemistry of cultured CP cells treated with cytokines; assay type: cell-based, mouse
Protocol: For whole mount staining of the choroid plexus, isolated tissues were fixed with 2.5% paraformaldehyde (PFA) for several hours, and subsequently transferred to PBS containing 0.05% sodium azide. Prior to staining, the dissected tissues were washed and blocked (20% horse serum, 0.3% Triton X-100, and PBS) for 1 h at room temperature with shaking. Whole mount staining with primary (in PBS containing 2% horse serum and 0.3% Triton X-100) and secondary antibodies (in PBS), was performed for 1h at room temperature, with shaking. Each step was followed by three washes in PBS. The tissues were mounted onto slides, using Immu-mount (9990402, from Thermo), and sealed with cover-slips. For staining of sectioned brains, two different tissue preparation protocols (paraffin embedded and microtomed frozen sections) were applied, as previously described (Ziv Y et al (2006b)). For immunocytochemistry, CP cells were isolated as described above and were grown on PLL coated cover slips for 7 days, replacing the medium every 3 days. Cytokines were added for the last 3 days of culture. Following 7 days of culture, the wells were washed with PBS and the cells were fixed either with 2.5% paraformaldehyde for 30 min or methanol-acetone (1:1) for 10 min at −20° C., following by 2 washing steps with PBS. For CCL11 staining, cells were treated with Brefeldin-A 2 hours prior to fixation in order to arrest protein secretion. The cover slips of the cultured CP cells were incubated with the indicated antibodies and mounted with Glycerol Vinyl Alcohol (GVA) mounting solution (Invitrogen). The following primary antibodies were used: rat anti-CD3 (Abcam); rat anti-ICAM-1 (1:100; Abcam), chicken anti-vimentin (1:500, Millipore), rabbit anti-Iba1 (1:300; Wako), goat anti-IL-10 (1:20; R&D), mouse anti-MHC-II (Abcam); mouse anti-Arginase-1 (BD Biosciences); mouse anti-Cytokeratin (Covance); rat anti-CCL11 (R&D Systems); rabbit anti-ZO-1 (Invitrogen); and rabbit anti-Claudin-1 (Invitrogen). Secondary antibodies included: Cy2/Cy3-conjugated donkey anti-rat, mouse or rabbit antibody and Cy3 conjugated donkey anti-mouse, goat, rat, chicken or rabbit (1:200; all from Jackson Immuno Research). The slides were exposed to Hoechst stain (1:2000; Invitrogen) for 1 min. Two negative controls were routinely used in immunostaining procedures, staining with isotype control antibody followed by secondary antibody, and staining with secondary antibody alone. For morphological quantification, average cross-sectional area of epithelial cells was measured following Nissl staining. Cell borders (20-25 cells per picture) were marked and the area was quantified using Image-Pro Plus software in a blinded fashion.

Foxp3-DTR mice = experiment: Foxp3+ Treg depletion by diphtheria toxin in DEREG (Foxp3-DTR) mice; assay type: in vivo, mouse
WT, mSOD and 5XFAD mice = experiment: Active immunization with MOG and monitoring Tregs and Th1 cells in the blood (Example 19); assay type: in vivo, mouse
Protocol: 200 μg of MOG35-55 (GL Biochem Ltd., Shanghai) are emulsified in 200 μl […] Freund's adjuvant (IFA) containing 0.5 mg/ml M. tuberculosis (strain H37Ra; BD Diagnostics), and 200 μl is injected subcutaneously to three groups of mice: WT, mSOD and 5XFAD. Control mice for each group are injected subcutaneously with PBS. At days 7, 14 and 28 post immunization, the mice are anesthetized, blood is collected into heparin containing tubes and […] of each sample are treated with ACK lysing buffer (Life Technologies) to remove erythrocytes. For intracellular staining of IFN-γ (corresponding to Th1 cells) the cells are incubated with PMA (10 ng/ml; Sigma-Aldrich) and ionomycin (250 ng/ml; Sigma-Aldrich) for 6 h, and Brefeldin-A ([…]; Sigma-Aldrich) was added for the last 4 h. Intracellular labeling is done with BD Cytofix/Cytoperm Plus Fixation/Permeabilization kit (cat. no. 555028) according to the manufacturer's protocol. For intracellular staining of Foxp3^+ T regulatory cells (Tregs), the cells are stained according to manufacturer's protocol (Mouse Regulatory T Cell Staining Kit, eBioscience, cat. No. 88-8111-40). […] Flow cytometry analysis is performed on each sample using a BD Biosciences LSRII flow cytometer, and the acquired data is analyzed using FlowJo software (Tree star). The ratio between Tregs and Th1 cells is calculated for each sample.

mSOD1 mice = experiment: MOG immunization of mSOD1 mice: EAE symptoms, CP trafficking molecules, leukocytes in CSF and spinal cord, survival; assay type: in vivo, mouse
WT mice = assay type: in vivo, mouse
[1] = 24 hours, IFN-γ 100 ng/ml, IL-4 10 ng/ml, IL-17 100 ng/ml

Molecule: IL-4: Th2-derived cytokine, purchased from PeproTech, added to cultured CP cells
- gene expression levels of trafficking molecules (ICAM-1, VCAM-1, CCL5, CXCL9, CXCL10, MHC-II) (CP epithelial cells; [1]): no effect on trafficking molecules
- expression of trafficking-related genes, escalating dosing of the cytokines (CP epithelial cells; cultured CP cells): None of the tested cytokines, other than IFN-γ, had any effect
- ccl11 mRNA levels (CCL11 expression) (CP epithelial cells; IL-4 10 ng/ml, IFN-γ 100 ng/ml): expressed high levels of CCL11
- arginase-1 (Arg1) expression (CP epithelial cells; cultured CP epithelial cells, IL-4 10 ng/ml, 24 h): upregulated arginase-1; also recorded: dramatic effect on the upregulation of arginase-1
- epithelial tight junctions (ZO-1 staining) (cultured CP cells; CP epithelial cell cultures in response to IL-4 (data not shown)): dysregulated
- CCL11 immunoreactivity (cultured CP cells; CP epithelium, IL-4, following Brefeldin-A treatment (data not shown)): produced CCL11
- Arg1 immunostaining (cultured CP cells; IL-4 (10 ng/ml) treated CP epithelial cells): higher relative to untreated cells

Molecule: diphtheria toxin [DTX]
- Foxp3+ T cells in the spleen, the CP and the CSF (Foxp3-DTR mice; DTX 8 ng/g i.p. per day for 4 days, DTR+ mice): depleted
- mRNA of ICAM-1, CXCL9, CXCL10, CXCL11, MCP-1, MCSF, BDNF and IGF-1 in the CP (Foxp3-DTR mice; following Foxp3+ T cells depletion by DTX): significantly upregulated

Molecule: MOG35-55 (MEVGWYRSPFSRVVHLYRNGK; emulsified in adjuvant) [emulsified in incomplete Freund's adjuvant containing 0.5 mg/ml M. tuberculosis]
- ratio of Tregs to Th1 cells in blood (WT, mSOD and 5XFAD mice; 7 or 14 days following immunization, versus control group): lower
- ratio of Tregs to Th1 cells in blood (WT, mSOD and 5XFAD mice; 28 days following immunization, relative to 7 or 14 days): increase
- total leukocyte numbers, including T cells and CD4+ T cells, in the CSF (mSOD1 mice; 14 days post immunization): increase in total leukocyte numbers
- expression of trafficking molecules (ICAM-1, CCL5, CXCL9, CXCL10) in the CP (mSOD1 mice; 14 days post immunization, compared to non-immunized mice): significant increase in the expression of trafficking molecules
- CD4+ T cell numbers in the spinal cord parenchyma (mSOD1 mice; 28 days post immunization): remained elevated
- local expression of IL-10 in the spinal cord (mSOD1 mice; 28 days post immunization): increased local expression of IL-10
- spatial distribution of infiltrating T cells (mSOD1 mice; 28 days post immunization, immunized mSOD1 mice (data not shown)): T cells were found in the gray matter of the spinal cord ventral horn
- lifespan compared to PBS injected mice (mSOD1 mice; average survival age and Kaplan-Meier curves, logrank p=0.024): significantly longer lifespan
- Foxp3+ Tregs in the CSF (mSOD1 mice; day 28 post immunization): significant elevation of Tregs
- Foxp3+ Tregs in the spinal cord parenchyma (mSOD1 mice; day 28 post immunization): significant elevation of Tregs
- mice still alive at the age of 154 days (mSOD1 mice; immunized mSOD1 mice): 90%
- average survival (mSOD1 mice; immunized mSOD1 mice, n=10 per group): 159.5 ± 2.2 days
- increased average survival (mSOD1 mice; immunized versus untreated mSOD1 mice): 15 days
- CD4+ T cells in the spinal cord parenchyma (mSOD1 mice; mouse, in vivo): increased infiltration of CD4^+ T cells
- expression of TGF-β1 in the spinal cord parenchyma (mSOD1 mice; mouse, in vivo): elevated
- infiltrating T cells in the CSF (WT mice; 14 days post immunization, relative to naïve or OVA-immunized mice): increase of infiltrating T cells
- expression of ICAM-1 by the CP epithelium (WT mice; mouse, in vivo): induced the expression of ICAM-1

B1: IFN-γ: Th1-derived cytokine, purchased from PeproTech, added to cultured CP cells (protein, UniProt P01580 23-155, looked up)
Interferon gamma: HGTVIESLESLNNYFNSSGIDVEEKSLFLDIWRNWQKDGDMKILQSQIISFYLRLFEVLKDNQAISNNISVIESHLITTFFSNSKAKKDAFMSIAKFEVNNPQVQRQAFNELIRVVHQLLPESSLRKRKRSRC
- expression of trafficking molecules (ICAM-1, VCAM-1, CCL5, CXCL10) mRNA (CP epithelial cells; CP epithelial cells from 70 day old WT and mSOD1 mice, IFN-γ 100 ng/ml, 24h): elevated the expression of trafficking molecules by both WT and mSOD1 CP cultures to a similar degree
- expression of the chemokine CCL20 (CP epithelial cells; CP epithelial cells, IL-17 100 ng/ml, IFN-γ 100 ng/ml, 24 h): not
- expression of trafficking molecules, IFN-γ combined with TNF-α (CP epithelial cells; IFN-γ 100 ng/ml combined with TNF-α 100 ng/ml, 24 hours, most of the tested genes): strong synergistic effect
- effect of IL-4 on CCL11 production (CP epithelial cells; IFN-γ (100 ng/ml) added together with IL-4, young CP epithelial cells, 24 hours): reversed the effect of IL-4 on CCL11 production
- gene expression levels of trafficking molecules (ICAM-1, VCAM-1, CCL5, CXCL9, CXCL10, MHC-II) (CP epithelial cells; [1]): induced the upregulation of a wide array of trafficking molecules
- expression of TNF-R1 mRNA (CP epithelial cells; cultured CP cells, IFN-γ 100 ng/ml, 24 h): elevated the expression of TNF-R1
- expression of chemokines CCL2, Fractalkine (CX3CL1) and M-CSF (CP epithelial cells; cultured CP cells, IFN-γ 100 ng/ml, 24 hours): upregulated
- expression of trafficking-related genes, escalating dosing of the cytokines (CP epithelial cells; cultured CP cells): activated the CP in a dose dependent manner
- basal CCL11 expression (CP epithelial cells; cultured CP epithelial cells from old (22 months) mice, IFN-γ 100 ng/ml, 24 hours): decreased basal CCL11 expression
- ccl11 mRNA levels (CCL11 expression) (CP epithelial cells; IL-4 10 ng/ml, IFN-γ 100 ng/ml): had no effect on CCL11 expression
- ICAM-1 and VCAM-1 immunostaining on CP epithelial cells (cultured CP cells; 3 days after addition of IFN-γ (100 ng/ml)): elevated
- IL-4 induced CCL11 immunoreactivity (cultured CP cells; co-incubation of IFN-γ with IL-4, following Brefeldin-A treatment (data not shown)): reversed this induction
